Measurements reported in patent US8785445B2 (Array BioPharma Inc., priority 2008, dated 2014).
Like-named read-outs stand apart in the source and are kept apart here.

Target: T1, human DP2 (Homo sapiens, UniProt Q9Y5Y4)
T1 construct: expressed in transfected cells; membranes prepared
T1 sequence (Q9Y5Y4 1-395): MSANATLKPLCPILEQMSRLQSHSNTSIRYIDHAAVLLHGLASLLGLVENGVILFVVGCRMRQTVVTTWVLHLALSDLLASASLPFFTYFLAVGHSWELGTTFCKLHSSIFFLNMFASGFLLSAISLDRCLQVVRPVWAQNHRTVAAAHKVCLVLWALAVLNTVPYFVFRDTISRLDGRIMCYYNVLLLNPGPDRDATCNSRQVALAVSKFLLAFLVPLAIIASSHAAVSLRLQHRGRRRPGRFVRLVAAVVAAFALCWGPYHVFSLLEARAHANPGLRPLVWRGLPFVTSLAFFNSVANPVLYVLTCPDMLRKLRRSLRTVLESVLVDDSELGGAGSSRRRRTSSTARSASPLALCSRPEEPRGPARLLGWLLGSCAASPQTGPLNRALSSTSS
Experiment: DP-2 binding inhibition assay (3H-PGD2, membranes of DP2-expressing K562 cells)
Settings: 4% HSA
Summary of the method: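 Membranes from K562 clones stably expressing human DP2 were incubated 60 min at room temperature with 3H-PGD2 and compound, with 0.1% BSA, 1% HSA or 4% HSA, then filtered and counted.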

SMILES	EC50 (read-out: EC50 (nM) 4% HSA) [nM]	EC50 (EC50 (nM) 4% HSA) [nM]
CN(C)c1nc(C(F)(F)F)ccc1CCNC(=O)c1ccc(Oc2cc3c(cc2Cl)C(C(=O)O)CCO3)cc1 (stereo not shown) [Example 139, Sodium 6-chloro-7-(4-(2-(2-(dimethylamino)-6-(trifluoromethyl)pyridin-3-yl)ethylcarbamoyl)phenoxy)chroman-4-carboxylate]	40	–
COc1ccc(CCNC(=O)c2ccc(Oc3cc4c(cc3Cl)C(C(=O)O)CCO4)cc2)c(OC)n1 (stereo not shown) [Example 140, Sodium 6-chloro-7-(4-(2-(2,6-dimethoxypyridin-3-yl)ethylcarbamoyl)phenoxy)chroman-4-carboxylate]	–	107
O=C(Nc1cccc(-c2ccc(Cl)cc2)n1)c1ccc(Oc2c(Cl)cc3c(c2Cl)OCCC3C(=O)O)cc1 (stereo not shown) [Example 143, Sodium 6,8-dichloro-7-(4-(6-(4-chlorophenyl)pyridin-2-ylcarbamoyl)phenoxy)-chroman-4-carboxylate]	83.4	–
O=C(Nc1ccc2cc(Cl)ccc2n1)c1ccc(Oc2c(Cl)cc3c(c2Cl)OCCC3C(=O)O)cc1 (stereo not shown) [Example 144, Sodium 6,8-dichloro-7-(4-(6-chloroquinolin-2-ylcarbamoyl)phenoxy)chroman-4-carboxylate]	299	–
O=C(Nc1ccc(-c2cccc(Cl)c2)nc1)c1ccc(Oc2c(Cl)cc3c(c2Cl)OCCC3C(=O)O)cc1 (stereo not shown) [Example 145, Sodium 6,8-dichloro-7-(4-(6-(3-chlorophenyl)pyridin-3-ylcarbamoyl)phenoxy)-chroman-4-carboxylate]	160	–
N#Cc1cc2c(cc1Oc1ccc(C(=O)Nc3nnc(-c4ccccc4)s3)cc1)OCCC2C(=O)O (stereo not shown) [Example 146, 6-Cyano-7-(4-(5-phenyl-1,3,4-thiadiazol-2-ylcarbamoyl)phenoxy)chroman-4-carboxylic acid]	728	–
N#Cc1cc2c(cc1Oc1ccc(C(=O)Nc3nnc(-c4ccc(Cl)cc4)s3)cc1)OCCC2C(=O)O (stereo not shown) [Example 147, 7-(4-(5-(4-chlorophenyl)-1,3,4-thiadiazol-2-ylcarbamoyl)phenoxy)-6-cyanochroman-4-carboxylic acid]	3440	–
O=C(Nc1nnc(-c2ccccc2)s1)c1ccc(Oc2cc3c(cc2Cl)C(C(=O)O)CCO3)cc1 (stereo not shown) [Example 148, 6-chloro-7-(4-(5-phenyl-1,3,4-thiadiazol-2-ylcarbamoyl)phenoxy)chroman-4-carboxylic acid]	5460	–
O=C(Nc1nnc(-c2ccc(Cl)cc2)s1)c1ccc(Oc2cc3c(cc2Cl)C(C(=O)O)CCO3)cc1 (stereo not shown) [Example 149, 6-chloro-7-(4-(5-(4-chlorophenyl)-1,3,4-thiadiazol-2-ylcarbamoyl)phenoxy)chroman-4-carboxylic acid]	1660	–
CC(C)(C)c1csc(NC(=O)c2ccc(Oc3cc4c(cc3Cl)C(C(=O)O)CCO4)cc2)n1 (stereo not shown) [Example 150, 7-(4-(4-tert-butylthiazol-2-ylcarbamoyl)phenoxy)-6-chlorochroman-4-carboxylic acid]	32.7	–
Cc1nc(NC(=O)c2ccc(Oc3cc4c(cc3Cl)C(C(=O)O)CCO4)cc2)sc1C(C)(C)C (stereo not shown) [Example 151, 7-(4-(5-tert-butyl-4-methylthiazol-2-ylcarbamoyl)phenoxy)-6-chlorochroman-4-carboxylic acid]	473	–
O=C(Nc1nc(-c2ccc(Cl)cc2)cs1)c1ccc(Oc2cc3c(cc2Cl)C(C(=O)O)CCO3)cc1 (stereo not shown) [Example 152, 6-chloro-7-(4-(4-(4-chlorophenyl)thiazol-2-ylcarbamoyl)phenoxy)chroman-4-carboxylic acid]	45.3	–
O=C(Nc1nc(-c2ccc(F)cc2)cs1)c1ccc(Oc2cc3c(cc2Cl)C(C(=O)O)CCO3)cc1 (stereo not shown) [Example 153, 6-chloro-7-(4-(4-(4-fluorophenyl)thiazol-2-ylcarbamoyl)phenoxy)chroman-4-carboxylic acid]	67.5	–
O=C(Nc1nc(-c2ccc(F)c(F)c2)cs1)c1ccc(Oc2cc3c(cc2Cl)C(C(=O)O)CCO3)cc1 (stereo not shown) [Example 154, 6-chloro-7-(4-(4-(3,4-difluorophenyl)thiazol-2-ylcarbamoyl)phenoxy)chroman-4-carboxylic acid]	59	–
O=C(Nc1nc(-c2ccc(F)cc2F)cs1)c1ccc(Oc2cc3c(cc2Cl)C(C(=O)O)CCO3)cc1 (stereo not shown) [Example 155, 6-chloro-7-(4-(4-(2,4-difluorophenyl)thiazol-2-ylcarbamoyl)phenoxy)chroman-4-carboxylic acid]	68.9	–
CC(C)c1csc(NC(=O)c2ccc(Oc3cc4c(cc3Cl)C(C(=O)O)CCO4)cc2)n1 (stereo not shown) [Example 156, 6-chloro-7-(4-(4-isopropylthiazol-2-ylcarbamoyl)phenoxy)chroman-4-carboxylic acid]	157	–
O=C(Nc1nc(-c2cccc(Cl)c2)cs1)c1ccc(Oc2cc3c(cc2Cl)C(C(=O)O)CCO3)cc1 (stereo not shown) [Example 157, 6-chloro-7-(4-(4-(3-chlorophenyl)thiazol-2-ylcarbamoyl)phenoxy)chroman-4-carboxylic acid]	16.6	–
CC(C)(C)c1cc(NC(=O)c2ccc(Oc3cc4c(cc3Cl)C(C(=O)O)CCO4)cc2)no1 (stereo not shown) [Example 158, 7-(4-(5-tert-butylisoxazol-3-ylcarbamoyl)phenoxy)-6-chlorochroman-4-carboxylic acid]	155	–
CCc1oc(NC(=O)c2ccc(Oc3cc4c(cc3Cl)C(C(=O)O)CCO4)cc2)nc1-c1ccccc1 (stereo not shown) [Example 159, 6-chloro-7-(4-(5-ethyl-4-phenyloxazol-2-ylcarbamoyl)phenoxy)chroman-4-carboxylic acid]	437	–

More lines, main results first:

EC50 (read-out: EC50 (nM) 4% HSA) [nM]	SMILES	EC50 (EC50 (nM) 4% HSA) [nM]
849	CC(C)c1nsc(NC(=O)c2ccc(Oc3cc4c(cc3Cl)C(C(=O)O)CCO4)cc2)n1 (stereo not shown) [Example 160, 6-chloro-7-(4-(3-isopropyl-1,2,4-thiadiazol-5-ylcarbamoyl)phenoxy)chroman-4-carboxylic acid]	–
74.6	O=C(Nc1cc(-c2ccc(Cl)cc2)no1)c1ccc(Oc2cc3c(cc2Cl)C(C(=O)O)CCO3)cc1 (stereo not shown) [Example 161, 6-chloro-7-(4-(3-(4-chlorophenyl)isoxazol-5-ylcarbamoyl)phenoxy)chroman-4-carboxylic acid]	–
1600	CC(C)(C)c1cc(NC(=O)c2ccc(Oc3cc4c(cc3Cl)C(C(=O)O)CCO4)cc2)on1 (stereo not shown) [Example 162, 7-(4-(3-tert-butylisoxazol-5-ylcarbamoyl)phenoxy)-6-chlorochroman-4-carboxylic acid]	–
564	O=C(Nc1nc(-c2ccccc2)ns1)c1ccc(Oc2cc3c(cc2Cl)C(C(=O)O)CCO3)cc1 (stereo not shown) [Example 163, 6-chloro-7-(4-(3-phenyl-1,2,4-thiadiazol-5-ylcarbamoyl)phenoxy)chroman-4-carboxylic acid]	–
143	O=C(Nc1cnn(-c2cccc(Cl)c2)c1)c1ccc(Oc2cc3c(cc2Cl)C(C(=O)O)CCO3)cc1 (stereo not shown) [Example 164, Sodium 6-chloro-7-(4-(1-(3-chlorophenyl)-1H-pyrazol-4-ylcarbamoyl)phenoxy)chroman-4-carboxylate]	–
187	O=C(Nc1cnn(-c2cccc(Cl)c2)c1)c1ccc(Oc2c(Cl)cc3c(c2Cl)OCCC3C(=O)O)cc1 (stereo not shown) [Example 165, Sodium 6,8-dichloro-7-(4-(1-(3-chlorophenyl)-1H-pyrazol-4-ylcarbamoyl)phenoxy)chroman-4-carboxylate]	–
85.1	O=C(Nc1ccn(-c2ccc(F)c(F)c2)n1)c1ccc(Oc2cc3c(cc2Cl)C(C(=O)O)CCO3)cc1 (stereo not shown) [Example 166, 6-chloro-7-(4-(1-(3,4-difluorophenyl)-1H-pyrazol-3-ylcarbamoyl)phenoxy)chroman-4-carboxylic acid]	–
46.8	O=C(Nc1ccn(-c2ccc(F)c(Cl)c2)n1)c1ccc(Oc2cc3c(cc2Cl)C(C(=O)O)CCO3)cc1 (stereo not shown) [Example 167, 6-chloro-7-(4-(1-(3-chloro-4-fluorophenyl)-1H-pyrazol-3-ylcarbamoyl)phenoxy)chroman-4-carboxylic acid]	–
112	O=C(Nc1ccn(-c2ccc(F)cc2F)n1)c1ccc(Oc2cc3c(cc2Cl)C(C(=O)O)CCO3)cc1 (stereo not shown) [Example 168, 6-chloro-7-(4-(1-(2,4-difluorophenyl)-1H-pyrazol-3-ylcarbamoyl)phenoxy)chroman-4-carboxylic acid]	–
76	O=C(Nc1ccn(-c2cccc(Cl)c2F)n1)c1ccc(Oc2cc3c(cc2Cl)C(C(=O)O)CCO3)cc1 (stereo not shown) [Example 169, 6-chloro-7-(4-(1-(3-chloro-2-fluorophenyl)-1H-pyrazol-3-ylcarbamoyl)phenoxy)chroman-4-carboxylic acid]	–
292	COc1ccc(-n2ccc(NC(=O)c3ccc(Oc4cc5c(cc4Cl)C(C(=O)O)CCO5)cc3)n2)cc1 (stereo not shown) [Example 170, 6-chloro-7-(4-(1-(4-methoxyphenyl)-1H-pyrazol-3-ylcarbamoyl)phenoxy)chroman-4-carboxylic acid]	–
97.5	O=C(Nc1ccn(-c2ccccc2)n1)c1ccc(Oc2cc3c(cc2Cl)C(C(=O)O)CCO3)cc1 (stereo not shown) [Example 171]	–
55	O=C(Nc1ccn(-c2cccc(Cl)c2)n1)c1ccc(Oc2cc3c(cc2Cl)C(C(=O)O)CCO3)cc1 (stereo not shown) [Example 172, 6-chloro-7-(4-(1-(3-chlorophenyl)-1H-pyrazol-3-ylcarbamoyl)phenoxy)chroman-4-carboxylic acid]	–
22.9	O=C(Nc1ccn(-c2ccc(Cl)c(Cl)c2)n1)c1ccc(Oc2cc3c(cc2Cl)C(C(=O)O)CCO3)cc1 (stereo not shown) [Example 173, 6-chloro-7-(4-(1-(3,4-dichlorophenyl)-1H-pyrazol-3-ylcarbamoyl)phenoxy)chroman-4-carboxylic acid]	–
47.1	O=C(Nc1ccn(-c2ccccc2Cl)n1)c1ccc(Oc2cc3c(cc2Cl)C(C(=O)O)CCO3)cc1 (stereo not shown) [Example 174, 6-chloro-7-(4-(1-(2-chlorophenyl)-1H-pyrazol-3-ylcarbamoyl)phenoxy)chroman-4-carboxylic acid]	–
